According to PubChem BioAssay (NCI):
Values joined by “and” are separate entries in the source; they are usually repeats but may differ in a detail not shown here. Equal values may be shown once.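 Exposure lasted 48 hours, with cells grown in 96-well plates and compounds tested at five concentrations. GI50 = concentration required for 50% inhibition of growth. TGI denotes the concentration required for complete inhibition of growth.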

Assays:
Assay in all cases: NCI anticancer screen, dose series, 48 h
EKVX NSCLC = system: EKVX NSCLC
HCC-2998 colon = system: HCC-2998 colon
HCT-15 colon = system: HCT-15 colon
NCI-H522 lung = system: NCI-H522 lung
RPMI-8226 leukemia = system: RPMI-8226 leukemia
SK-MEL-28 melanoma = system: SK-MEL-28 melanoma
SK-MEL-5 melanoma = system: SK-MEL-5 melanoma
T-47D breast = system: T-47D breast
TK-10 renal = system: TK-10 renal
U251 CNS = system: U251 CNS

Row | Compound | GI50 (EKVX NSCLC) | TGI (EKVX NSCLC) [µM] | GI50 (HCC-2998 colon) | TGI (HCC-2998 colon) | GI50 (HCT-15 colon) | TGI (HCT-15 colon) | GI50 (NCI-H522 lung) [µM] | TGI (NCI-H522 lung) [µM] | GI50 (RPMI-8226 leukemia) [µM] | TGI (RPMI-8226 leukemia) [µM] | GI50 (SK-MEL-28 melanoma) | TGI (SK-MEL-28 melanoma) [µM] | GI50 (SK-MEL-5 melanoma) | TGI (SK-MEL-5 melanoma) | GI50 (T-47D breast) [µM] | TGI (T-47D breast) [µM] | GI50 (TK-10 renal) [µM] | TGI (TK-10 renal) [µM] | GI50 (U251 CNS) | TGI (U251 CNS) [µM]
1 | COc1ccc(/C=C(/C(=O)N2CCNCC2)c2cc(OC)c(OC)c(OC)c2)cc1O | 6.43 µM | > 100 | 3.76 µM | > 100 µM | 36.7 µM | > 100 µM | 2.42 | 9.84 | 3.55 | > 100 | 8.84 µM | > 100 | 4.71 µM | 56.4 µM | 6.71 | > 100 | 79.4 | > 100 | 3.29 µM | > 100
2 | Cc1ccccc1NC(=O)NC(CC(N)=O)c1ccc2c(c1)nc(-c1cccc(Oc3ccc(C(C)(C)C)cc3)c1)n2CCCN1CCCCC1C (stereo not drawn) | 5.37 µM | 11.5 | 2.23 µM | 5.04 µM | 12.5 µM | 27.1 µM | 1.88 | 3.57 | 2.49 | 6.48 | 1.89 µM | 3.51 | 1.73 µM | 3.19 µM | 2.6 | 10.5 | 4.28 | 9.01 | 1.75 µM | 3.23
3 | COc1ccc(-n2c(N)c(C(=O)NCCN3CCOCC3)c3nc4ccccc4nc32)cc1OC | 40.2 µM | > 100 | 94.3 µM | > 100 µM | 15 µM | > 100 µM | 8.07 | > 100 | 3.36 | > 100 | 32.1 µM | > 100 | 3.22 µM | > 100 µM | 25 | > 100 | 31.9 | > 100 | 8.68 µM | > 100
4 | Cn1c(=O)c(F)c(Nc2ccc(I)cc2F)c2c(=O)n(C[C@@H](O)CO)cnc21 | 0.042 µM and 0.0485 µM | > 64.1 | < 0.01 µM and 0.0028 µM | 0.0969 µM and 0.57 µM | 1.9 µM and 0.873 µM | 43.2 µM and > 8.26 µM | – | > 100 | 9.12 | > 91.8 | < 0.01 µM and 0.00301 µM | – | < 0.0268 µM and 0.0448 µM | 17.9 µM and > 3.46 µM | 18.2 | > 96.5 | – | 26.4 | 0.741 µM and 0.246 µM | > 49.9
5 | O=C1NC(=NCc2ccccn2)S/C1=C\c1ccc2ncccc2c1 | – | – | 13.8 µM | > 25 µM | 6.86 µM | > 25 µM | 7.61 | > 18.8 | > 12.6 | > 25 | > 23.7 µM | > 25 | 13 µM | > 25 µM | 11.2 | > 25 | 6.06 | > 20.2 | 7.87 µM | > 25
6 | CSC(=S)N/N=C(\C)c1ccccn1 | 0.117 µM | 17.5 | 0.509 µM | 16.2 µM | 0.16 µM | 24.5 µM | 0.0339 | 0.368 | 0.0232 | 16.1 | 0.429 µM | 17.5 | 0.28 µM | 1.04 µM | < 0.01 | 15.2 | 0.527 | 24.2 | 0.199 µM | 13.6
7 | O=C(Nc1ccccc1Cl)c1ccc(NC2=C(Cl)C(=O)N(Cc3ccccc3)C2=O)cc1 | > 100 µM | > 100 | 13.7 µM | 26.6 µM | 15 µM | 29.2 µM | 17.9 | 38.8 | > 100 | > 100 | 43 µM | > 100 | 32.7 µM | > 100 µM | 62.4 | > 100 | 46.7 | > 100 | 38.4 µM | > 100
8 | Cc1ccc(Cl)cc1Nc1nc(C(F)(F)F)ccc1C(=O)Oc1ccc(Cl)cc1 | 7.26 µM | 22.8 | 8.86 µM | 29.4 µM | 10.9 µM | 30.8 µM | 22.3 | > 100 | 28.6 | > 100 | 21.9 µM | > 100 | 7.01 µM | 26.8 µM | 6.53 | 42.2 | 5.57 | 18.6 | 4.15 µM | 16.1
9 | O=C1c2cccc3cccc(c23)C(=O)N1CCCCOc1ccc(-c2nc3ccc(N4CCOCC4)cc3[nH]2)cc1 | 17.6 µM | > 57.9 | 5.25 µM | > 47.8 µM | 2.14 µM | 8.01 µM | 15.1 | 41.2 | 1.27 | 4.39 | 1.42 µM | 2.86 | 1.6 µM | 3.06 µM | 3.08 | 15.9 | 3.57 | 13.4 | 1.53 µM | 4.56
10 | COc1cc(/C=C/C(=O)c2ccc(Nc3nc(Nc4ccc(F)cc4)nc(Nc4ccc(F)cc4)n3)cc2)cc(OC)c1OC | 59.1 µM | > 100 | 27.7 µM | > 100 µM | 5.53 µM | > 100 µM | 3.1 | > 100 | 1.81 | 35.2 | 26.7 µM | > 100 | 3.4 µM | 30.4 µM | 5.76 | > 100 | 35.8 | > 100 | 7.92 µM | > 100
11 | COc1cc2c(/C=C3\C(=O)Nc4ccc(Br)cc43)c(Cl)n(C)c2cc1C | 3.76 µM | 34.1 | 1.66 µM | 4.62 µM | 1.92 µM | 8.06 µM | 1.66 | 4.29 | 1.41 | 16.6 | 0.418 µM | 3.49 | 1.41 µM | 2.99 µM | 30.8 | > 100 | 2.72 | 9.19 | 0.675 µM | 6.69
12 | N#Cc1c2ccccc2c2nnc3cc(Cl)c(Cl)cc3n12 | 48.6 µM | > 100 | 23 µM | 82.1 µM | 33 µM | > 100 µM | 39.2 | > 100 | 29.6 | > 100 | – | – | 84.2 µM | > 100 µM | > 100 | > 100 | > 100 | > 100 | 50.7 µM | > 100
